# Patent US5242938A, “Derivatives of virginiamycin M1” (Merck & Co., Inc., priority 1992, dated 1993)
# pIC50: −log10 of the molar value. Where two headings read alike, the source gives them in different places.
# Tests used:
# [1] = biological target: T1, CCK-B (guinea pig cortex) (Cavia porcellus, UniProt H0VZC5); test: [125I]BHCCK-8 radioligand binding, guinea pig cortical preparation; conditions: read-out: CCK binding inhibition - IC50, [125I]BHCCK
# T1 construct: guinea pig cortical preparations; from tissue; host or cells: guinea pig brain cortex membranes
# T1 sequence (H0VZC5 1-426): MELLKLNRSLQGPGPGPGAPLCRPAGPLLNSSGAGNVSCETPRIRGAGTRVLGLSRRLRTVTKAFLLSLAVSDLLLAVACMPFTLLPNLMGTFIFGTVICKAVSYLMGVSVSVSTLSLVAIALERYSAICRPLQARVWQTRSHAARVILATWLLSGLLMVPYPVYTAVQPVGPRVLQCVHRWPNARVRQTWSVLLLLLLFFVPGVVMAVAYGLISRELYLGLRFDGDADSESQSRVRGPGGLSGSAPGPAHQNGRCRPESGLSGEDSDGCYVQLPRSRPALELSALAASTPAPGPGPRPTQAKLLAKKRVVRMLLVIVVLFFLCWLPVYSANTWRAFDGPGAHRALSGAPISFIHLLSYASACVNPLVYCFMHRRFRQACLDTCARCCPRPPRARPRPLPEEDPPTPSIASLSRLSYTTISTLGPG
# Procedure: (§1) The resulting supernatant was re-spun at 20,000×g for 20 minutes. […] Incubations were for 40 minutes at 4° C. and were terminated by filtration and washing with ice cold 100 mM saline. […] Incubations were for 30 minutes at room temperature and were terminated by filtration over GF/C filters and washing with 100 mM NaCl.
# [2] = biological target: T1, CCK-B (guinea pig cortex); test: [3H]L-365,260 CCK-B selective antagonist ligand binding, brain membranes; conditions: for pIC50: read-out: CCK binding inhibition - IC50, [3H]L-365,260
# Procedure: as §1
# [3] = biological target: T2, CCK-A (rat pancreas) (Rattus norvegicus, UniProt P30551); test: [125I]BHCCK-8 radioligand binding, rat pancreatic preparation; conditions: read-out: CCK binding inhibition - IC50, [125I]BHCCK
# T2 construct: from tissue; host or cells: rat pancreas
# T2 sequence (P30551 1-444): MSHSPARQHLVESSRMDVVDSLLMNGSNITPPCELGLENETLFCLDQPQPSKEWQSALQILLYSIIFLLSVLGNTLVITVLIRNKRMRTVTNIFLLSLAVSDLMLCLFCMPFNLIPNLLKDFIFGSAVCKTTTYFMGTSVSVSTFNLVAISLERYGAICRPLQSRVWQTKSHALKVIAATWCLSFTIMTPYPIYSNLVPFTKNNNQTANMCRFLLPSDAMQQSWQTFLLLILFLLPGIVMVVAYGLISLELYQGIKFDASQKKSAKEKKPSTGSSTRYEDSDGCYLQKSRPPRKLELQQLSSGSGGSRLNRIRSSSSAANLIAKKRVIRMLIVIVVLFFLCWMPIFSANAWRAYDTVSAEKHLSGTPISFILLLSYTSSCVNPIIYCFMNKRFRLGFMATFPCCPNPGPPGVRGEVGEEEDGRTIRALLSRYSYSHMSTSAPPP
# Procedure: as §1
# [4] = biological target: T2, CCK-A (rat pancreas); test: [3H]L-364,718 CCK-A selective antagonist ligand binding, pancreas; conditions: read-out: CCK binding inhibition - IC50, [3H]L-364,718
# Procedure: as §1
# [5] = test system: Bacillus sp. (Mb 633); test: Agar diffusion disc assay, Baci 633; format: cell-based; conditions: @ 20 g/disc
# Procedure: (§2) Cultures employed in evaluating antimicrobial activity included plant pathogens, human and animal opportunistic pathogens and selected laboratory strains having specific-antibiotic sensitivities or chromosomal or R-plasmid-mediated resistances. […] The agar diffusion MIC's were determined using the method described by Barry in Anitbiotics in Laboratory Medicine, 2nd Ed., Ed. V. Lorian, pp. 1-63, William & Wilkins, Baltimore, 1986. Each test compound was dissolved in methanol to a concentration of 1 mg/ml. Serial dilutions of these compounds were also made to determine an agar diffusion MIC. 20 μl of each dilution was pipetted on to 6 mm paper discs, air dried and placed onto the surface of an agar plate seeded with the appropriate bacteria (~10^6 cfu). Seeded agar plates were incubated overnight (~18 hours) at 25° C. Zone sizes were measured to the nearest mm. Each compound was tested in triplicate and the results shown represent the mean.
# [6] = test system: Staphylococcus aureus (Mb 108, ATCC 6538P); test: Agar diffusion disc assay, Sta 108; format: cell-based; conditions: Staphylococcus aureus, ATCC6538P, 18 h
# Procedure: as §2
# [7] = test system: Bacillus subtilis (Mb 964, ATCC 6633); test: Agar diffusion disc assay, Subt 964; format: cell-based; conditions: Bacillus subtilis, ATCC6633, 18 h, read-out: Inhibition zone diameter, Subt 964
# Procedure: as §2
# [8] = test system: Micrococcus luteus (Mb 1101, ATCC 9341); test: Agar diffusion disc assay, Micr 1101; format: cell-based; conditions: for MIC: read-out: Agar Diffusion MIC versus Micrococcus luteus
# Procedure: as §2
# [9] = test system: Staphylococcus aureus (Mb 2983); test: Agar diffusion disc assay, Sta 2983; format: cell-based; conditions: Staphylococcus aureus, 18 h
# Procedure: as §2
# [10] = test system: Corynebacterium pseudodiphtheriticum (Mb 261, ATCC 9742); test: Agar diffusion disc assay, Cory 261; format: cell-based; conditions: Corynebacterium pseudodiphtheriticum, ATCC9742, 18 h
# Procedure: as §2
# [11] = test system: Streptococcus faecium (Mb 2820); test: Agar diffusion disc assay, Str 2820; format: cell-based; conditions: Enterococcus faecium, 18 h
# Procedure: as §2
# [12] = test system: Streptococcus agalactiae (Mb 2875); test: Agar diffusion disc assay, Str 2875; format: cell-based; conditions: Streptococcus agalactiae, 18 h
# Procedure: as §2
# [13] = test system: Salmonella gallinarum (Mb 1287); test: Agar diffusion disc assay, Salm 1287; format: cell-based; conditions: Salmonella enterica, GALLINARUM, 18 h, read-out: Inhibition zone diameter, Salm 1287
# Procedure: as §2
# [14] = test system: Escherichia coli (Mb 1418); test: Agar diffusion disc assay, Coli 1418; format: cell-based; conditions: @ 20 g/disc
# Procedure: as §2
# [15] = test system: Pseudomonas stutzeri (Mb 1231, ATCC 11607); test: Agar diffusion disc assay, Pseu 1231; format: cell-based; conditions: @ 20 g/disc
# Procedure: as §2
# [16] = test system: En terobacter aergenes (Mb 835); test: Agar diffusion disc assay, Ent 835; format: cell-based; conditions: 18 h, read-out: Inhibition zone diameter, Ent 835
# Procedure: as §2
compound,measurement,setting,value
CC(=O)O[C@@H]1/C=C(C)/C=C/CNC(=O)/C=C/[C@@H](C)[C@@H](C(C)C)OC(=O)C2=CCCN2C(=O)c2coc(n2)CC(=O)C1 [Example 2],pIC50,[1],6.15
same,"A.R. = agonist ratio = IC50([3H]L365,260)/IC50([125I]CCK)",[2],> 25
same,"percentage in parentheses beside >3.0, [3H]L-365,260 (inhibition at top concentration, not defined)",[2]; beside IC50 >3.0,21%
same,pIC50,[2],< 5.52
same,pIC50,[3],< 5.52
same,pIC50,[4],< 5.52
same,zone of inhibition at 20 µg/disc,"[5]; Bacillus, 18 h, read-out: Inhibition zone diameter, Baci 633",0 mm
same,zone of inhibition at 20 µg/disc,"[6]; @ 20 g/disc, read-out: Inhibition zone diameter, Sta 108",11 mm
same,zone of inhibition at 20 µg/disc,[7]; @ 20 g/disc,0 mm
same,zone of inhibition at 20 µg/disc,"[8]; Micrococcus luteus, ATCC9341, 18 h, @ 20 g/disc, read-out: Inhibition zone diameter, Micr 1101",21 mm
same,MIC,"[8]; Micrococcus luteus, ATCC9341, 18 h",3.24 µM
same,zone of inhibition at 2.5 µg/disc,"[8]; Micrococcus luteus, ATCC9341, 2.50 μg/disc, 25° C., ~18 hours, read-out: Mean of triplicate zone size versus Micrococcus luteus",7 mm
same,zone of inhibition at 5 µg/disc,"[8]; Micrococcus luteus, ATCC9341, 5.00 μg/disc, 25° C., ~18 hours, read-out: Mean of triplicate zone size versus Micrococcus luteus",14 mm
same,zone of inhibition at 10 µg/disc,"[8]; Micrococcus luteus, ATCC9341, 10.0 μg/disc, 25° C., ~18 hours, read-out: Mean of triplicate zone size versus Micrococcus luteus",18 mm
same,zone of inhibition at 20 µg/disc,"[8]; Micrococcus luteus, ATCC9341, 20.0 μg/disc, 25° C., ~18 hours, read-out: Mean of triplicate zone size versus Micrococcus luteus",21 mm
same,zone of inhibition at 20 µg/disc,"[9]; @ 20 g/disc, read-out: Inhibition zone diameter, Sta 2983",0 mm
same,zone of inhibition at 20 µg/disc,"[10]; @ 20 g/disc, read-out: Inhibition zone diameter, Cory 261",13 mm
same,zone of inhibition at 20 µg/disc,"[11]; @ 20 g/disc, read-out: Inhibition zone diameter, Str 2820",0 mm
same,zone of inhibition at 20 µg/disc,"[12]; @ 20 g/disc, read-out: Inhibition zone diameter, Str 2875",0 mm
same,zone of inhibition at 20 µg/disc,[13]; @ 20 g/disc,0 mm
same,zone of inhibition at 20 µg/disc,"[14]; Escherichia coli, 18 h, read-out: Inhibition zone diameter, Coli 1418",0 mm
same,zone of inhibition at 20 µg/disc,"[15]; Stutzerimonas stutzeri, ATCC11607, 18 h, read-out: Inhibition zone diameter, Pseu 1231",0 mm
same,zone of inhibition at 20 µg/disc,[16]; @ 20 g/disc,0 mm
"CC1=C\[C@@H](O)CC(O)Cc2nc(co2)C(=O)N2CCC=C2C(=O)O[C@H](C(C)C)[C@H](C)/C=C/C(=O)NC\C=C\1 (single isomer, unassigned) [Example 14A]",pIC50,[1],5.68
same,"A.R. = agonist ratio = IC50([3H]L365,260)/IC50([125I]CCK)",[2],0.1
same,pIC50,[2],6.85
same,pIC50,[3],< 5.52
same,pIC50,[4],< 5.52
same,"Inhibition zone diameter, Baci 633",[5],9 mm
same,zone of inhibition at 20 µg/disc,"[6]; read-out: Inhibition zone diameter, Sta 108, @ 20 g/disc",27 mm
same,zone of inhibition at 20 µg/disc,[7],0 mm
same,zone of inhibition at 20 µg/disc,"[8]; Micrococcus luteus, ATCC9341, 18 h, read-out: Inhibition zone diameter, Micr 1101, @ 20 g/disc",35 mm
same,zone of inhibition at 1.25 µg/disc,"[8]; Micrococcus luteus, ATCC9341, 18 h, read-out: Mean of triplicate zone size versus Micrococcus luteus, 1.25 μg/disc, 25° C., ~18 hours",25 mm
same,zone of inhibition at 2.5 µg/disc,"[8]; Micrococcus luteus, ATCC9341, 18 h, read-out: Mean of triplicate zone size versus Micrococcus luteus, 2.50 μg/disc, 25° C., ~18 hours",27 mm
same,zone of inhibition at 5 µg/disc,"[8]; Micrococcus luteus, ATCC9341, 18 h, read-out: Mean of triplicate zone size versus Micrococcus luteus, 5.00 μg/disc, 25° C., ~18 hours",29 mm
same,zone of inhibition at 20 µg/disc,"[8]; Micrococcus luteus, ATCC9341, 18 h, read-out: Mean of triplicate zone size versus Micrococcus luteus, 20.0 μg/disc, 25° C., ~18 hours",33 mm
same,MIC,[8],0.08 µM
same,zone of inhibition at 20 µg/disc,"[9]; read-out: Inhibition zone diameter, Sta 2983, @ 20 g/disc",22 mm
same,zone of inhibition at 20 µg/disc,"[10]; read-out: Inhibition zone diameter, Cory 261, @ 20 g/disc",30 mm
same,zone of inhibition at 20 µg/disc,"[11]; read-out: Inhibition zone diameter, Str 2820, @ 20 g/disc",16 mm
same,zone of inhibition at 20 µg/disc,"[12]; read-out: Inhibition zone diameter, Str 2875, @ 20 g/disc",30 mm
same,zone of inhibition at 20 µg/disc,[13],0 mm
same,"Inhibition zone diameter, Coli 1418",[14],8 mm
same,"Inhibition zone diameter, Pseu 1231",[15],15 mm
same,zone of inhibition at 20 µg/disc,[16],0 mm
